Assay results from US7807368B2, “Cyclin-dependent kinase inhibitors as targets for opiod growth factor treatment” (priority 2006, dated 2010).
“Also recorded” adds a separate entry of the source.

How the values were obtained:
p16/Cdk4 complex = test: Cdk4 immunoprecipitation, p16/Cdk4 and cyclin D1/Cdk4 complexes in SCC-1 cells; assay type: cell-based, human
Protocol: Cell extracts were subjected to immunoprecipitation using antibodies against Cdk4 and protein A beads (Santa Cruz). Immunoprecipitates were separated on a 15% SDS-PAGE gel, and membrane blots probed with p16 antibodies (1:200), and developed using a chemiluminescence Western blotting detection system. Blots were re-probed with Cdk4 antibody (1:200). Five independent experiments were performed.

CAL-27 cells = test: Growth curves of CAL-27 cells transfected with p16 siRNA; assay type: cell-based, human
Protocol: (§1) The SCC-1 (UM-SCC-1) cell line was obtained from the University of Michigan Cancer Research Laboratory, and CAL-27 and SCC-4 cells were obtained from the American Type Culture Collection (Manassas, Va.). SCC-1 and CAL-27 cells were cultured in DMEM media, whereas SCC-4 cells were grown in 1:1 Hams F-12 DMEM media. All media was supplemented with 10% fetal bovine serum (HyClone, Logan, Utah), 1.2% sodium bicarbonate, and 5000 units/ml penicillin, 5 μg/ml streptomycin and 10 μg/ml neomycin. OGF was purchased from Sigma-Aldrich (St. Louis, Mo.), dissolved in sterile water, and used at a final concentration of 10^−6 M.
(§2) The p16-targeted siRNAs (antisense:5′ […]-3′; sense (SEQ ID NO:5): 5′ […]-3′(SEQ ID NO:6) were obtained as ready-annealed, purified duplex probes (Invitrogen, Carlsbad, Calif.). For transfection, 2×10^5 cells per well were seeded in 6-well plates containing 1 ml of serum-free media without antibiotics. In each well, 20 nM of p16-siRNA or control siRNA solutions in serum-free media were added. Cells were incubated for 4 h at 37° C. prior to the addition of OGF. Cultures were incubated for additional 20 h, and then 1 ml fresh complete media either lacking or containing OGF was added. At the indicated time points, cells were collected for growth curves or Western blotting. Three or more independent experiments were conducted. The control siRNAs were purchased from Ambion.

SCC-4 cells = test: Growth curves of SCC-4 cells transfected with p16 siRNA or negative control siRNA; assay type: cell-based, human
Protocol: as §1, §2

Rb protein = test: Western blot of Rb and phospho-Rb in synchronized BxPC-3 cells; assay type: cell-based, human
Protocol: (§3) Synchronized cells (2×10^6) from each treatment were solubilized in 200 μl RIPA buffer (1×PBS, 10 μM IGEPAL, 1 mg/ml SDS, 5 mg/ml deoxycholic acid), containing protease and phosphatase inhibitors (2 μg/ml aprotinin, 3 mg/ml phenylmethyl sulfonyl fluoride, 1 mM sodium orthovanidate, 1 μM okadaic acid). Total protein concentrations were measured using the DC protein assay kit (Bio-Rad Laboratories, Hercules, Calif.). Equal amounts of protein (40 μg) were subjected to 10% SDS-PAGE followed by transfer of proteins onto polyvinylidene difluoride (Millipore, Billerica, Mass.) using standard protocols.
(§4) The following antibodies were purchased from commercial sources: phospho-Rb (Ser795), phospho-Rb (Ser807/811) (Cell Signaling Technology, Beverly, Mass.); Cdk2, p57 (Santa Cruz Biotechnology, Santa Cruz, Calif.); p21, p27, total Rb (BD PharMingen, San Diego, Calif.); β-actin (Clone AC-15, Sigma-Aldrich).
(§5) Membranes were probed with secondary anti-rabbit or anti-mouse horseradish peroxidase-conjugated antibodies (GE Healthcare-Amersham Biosciences, Piscataway, N.J.), and developed using a chemiluminescence Western blotting detection system.
(§6) To determine equal loading of total protein samples, blots were re-probed with monoclonal antibody against β-actin at a dilution of 1:2000. If necessary, membranes were processed in stripping buffer (62.5 mM Tris-HCI and 100 mM β-mercaptoethanol/2% SDS, pH 6.7) at 50° C. before being re-probed.
(§7) To quantify expression levels or kinase activity, the optical density of each band was determined by densitometry and analyzed by QuickOne (Bio-Rad Laboratories). Each value was normalized to β-actin from the same blot. To report the changes due to OGF treatment, we calculated the fold increase by dividing the normalized value from the OGF treated samples by the normalized value of control samples at each time point; thus, increases due to OGF have values greater than one, and decreases due to OGF have values less than one. For all Western blot analyses, 3 or more independent experiments were performed.

p21 = test: Western blot of p21, p27 and Cdk2 in BxPC-3 cells; assay type: cell-based, human
Protocol: as §3, §4, §5, §6, §7
The p21-targeted siRNAs were obtained from Santa Cruz Biotechnology, and negative control siRNAs were purchased from Ambion (Ambion, Inc., Austin, Tex.). For transfection, 2×10^5 cells per well were seeded in 6-well plates containing 1 ml of media without antibiotics. For each well, 1 μl of siRNA stock (20 μM) was mixed with 175 μl of serum-free media. Two μl of Oligofectamine reagent (Invitrogen, Carlsbad, Calif.) was added to prewashed cells in each well, making the final concentration for siRNA approximately 20 nM. Cells were incubated for 4 hours at 37° C. prior to the addition of OGF. Eighteen hours later, 1 ml fresh complete media with or without OGF was added to the cultures; media and OGF were replaced daily. At the indicated time points, cells were collected for growth curves or Western blotting.

p21/Cdk2 complex = test: Cdk2 immunoprecipitation, p21/Cdk2 and cyclin E/Cdk2 complexes in BxPC-3 cells; assay type: cell-based, human
Source text: Cell extracts were subjected to immunoprecipitation using antibodies against Cdk2 and protein A beads. Immunoprecipitates were separated on a 15% SDSPAGE gel, and membrane blots probed with p21 antibodies (1:100), and developed using a chemiluminescence Western blotting detection system. Blots were reprobed with Cdk2 antibody (1:200).

[1] = tested on: Normal Human Neo-Epidermal Keratinocyte cells (NHEK); test: Growth of NHEK cells; assay type: cell-based; settings: 10^-6 M OGF
Protocol: OGFr is required for OGF action on growth. Normal Human Neo-Epidermal Keratinocyte cells (NHEK) were transfected with OGFr siRNAs or control siRNAs for 72 h in the presence of 10^−6 M OGF, 10^−6 M NTX, or sterile water. Cells were harvested at 72 h and counted with a hemacytometer. Data represent means±SE for 2 independent experiments. Cell numbers differed from wt cells or cells transfected with the negative control siRNA and treated with sterile water at p<0.05 (*), p<0.01 (**), or […]. […] At 72 hr, OGF-treated cultures had 20% fewer cells and at 96 hr, OGF-treated cultures had 32% fewer cells than sterile-water treated control cultures.

In the case of [Met^5]-enkephalin [OGF], the “level of the p16/Cdk4 complex” value (p16/Cdk4 complex; 3, 6, 9, and 12 h, significant (p<0.05) at 9 and 12 h) is reported as “elevated at all time points; also recorded: increased at all time points”, the “level of the cyclin D1/Cdk4 complex” value (p16/Cdk4 complex; after treatment with OGF) is reported as “no change” and the “effect on growth of cells lacking p16” value (CAL-27 cells) is reported as “no inhibitory effects”. For the same substance, the decrease of growth (SCC-4 cells; SCC-4 cells transfected with negative control siRNAs, 96 h) was 43%, the “effect on growth of cells lacking p16 expression” value (SCC-4 cells; SCC-4 cells transfected with p16 siRNAs) was “no effect” and the “level of phospho-Rb (Ser795)” value (Rb protein; 15, 18, and 21 hours, 10^-6 M OGF, significant at 21 hours (p<0.01)) was “decreased”. The “phospho-Rb (pSer807/811) levels” value (Rb protein; OGF treatment, Western blot) was “did not alter”, the “Expression of total Rb protein” value (Rb protein; after 21 hours of OGF treatment) was “not decreased” and the “expression of the cell cycle inhibitor p27” value (p21; OGF treatment) was “no significant effect”. For the same substance, the “expression of Cdk2 protein” value (p21; following OGF exposure) was “did not change”, the p21 expression (p21; synchronized BxPC-3 cells, 9 hours, 10^-6 M OGF, 10^-5 M naloxone) was “significantly upregulated; also recorded: significantly elevated” and the “levels of the p21/Cdk2 complex” value (p21/Cdk2 complex; 3, 6, 9, 12, 15, 18, and 21 hours, significant (p<0.05) at 15 hours) was “elevated at all time points; also recorded: increase at 9, 12, 15, 18, and 21 hours”. The “level of the cyclin E/Cdk2 complex” value (p21/Cdk2 complex; after treatment with OGF) was “no change”, the “fewer cells than control cultures” value ([1]; 72 hr) was 20% and the “fewer cells than control cultures” value ([1]; 96 hr) was 32%. It also gave a doubling time ([1]; growth curve data) of 57.1 h.
